Laboratory results reported in US20250171437A1 (Agios Pharmaceuticals,Inc., priority 2022, published 2025).

Biological target: T1, human PAH with the R408W mutation (A375 R408W cells) (Homo sapiens, UniProt P00439, R408W)
T1 construct: expressed in transfected cells
T1 sequence (P00439 1-452 R408W): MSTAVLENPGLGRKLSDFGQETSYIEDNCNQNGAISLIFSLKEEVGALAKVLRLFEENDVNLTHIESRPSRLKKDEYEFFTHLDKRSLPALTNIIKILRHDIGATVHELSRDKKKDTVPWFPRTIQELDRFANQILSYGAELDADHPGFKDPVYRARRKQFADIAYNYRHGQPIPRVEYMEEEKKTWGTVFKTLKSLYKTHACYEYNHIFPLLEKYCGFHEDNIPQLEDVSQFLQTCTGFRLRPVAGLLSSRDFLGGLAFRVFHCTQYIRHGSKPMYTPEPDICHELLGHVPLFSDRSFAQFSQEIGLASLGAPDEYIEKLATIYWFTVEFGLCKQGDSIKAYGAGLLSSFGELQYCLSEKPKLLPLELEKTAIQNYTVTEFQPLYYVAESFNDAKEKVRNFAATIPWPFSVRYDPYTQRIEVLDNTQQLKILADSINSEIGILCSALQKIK
Test: Cell Based Phenylalanine Flux Assay
Conditions: A375 R408W cells; 24 hrs with compound, then 20 μM sepiapterin and 800 μM 13C9,15N-Phenylalanine for 4 hours; 13C-Tyrosine by LC-MS; average where tested multiple times
Summary of the method: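 Stable R408W PAH A375 cells: 24 h compound pretreatment in duplicate, then 4 h with 800 μM isotope-labelled Phe and 20 μM sepiapterin. Labelled Tyr output by LC-MS; AC50 averaged where repeated.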

SMILES | AC50 [nM]
O=C(c1ccnn1C(F)(F)F)N1CCc2[nH]cnc2[C@@H]1c1nc2cc(F)ccc2o1 [Example 262, (R)-(4-(5-fluorobenzo[d]oxazol-2-yl)-6,7-dihydro-1H-imidazo[4,5-c]pyridin-5(4H)-yl)(1-(trifluoromethyl)-1H-pyrazol-5-yl)methanone] | 500 to 1000
CC(C)(O)c1nc(Br)c(C(=O)N2CCc3[nH]cnc3[C@@H]2c2nc3cccc(F)c3o2)o1 [Example 264, (R)-(4-bromo-2-(2-hydroxypropan-2-yl)oxazol-5-yl)(4-(7-fluorobenzo[d]oxazol-2-yl)-6,7-dihydro-1H-imidazo[4,5-c]pyridin-5(4H)-yl)methanone] | 500 to 1000
COCc1ccc2c(C(=O)N3CCc4[nH]cnc4[C@H]3c3nc4cccc(F)c4o3)cnn2c1 [Example 265, (S)-(4-(7-fluorobenzo[d]oxazol-2-yl)-6,7-dihydro-1H-imidazo[4,5-c]pyridin-5(4H)-yl)(6-(methoxymethyl)pyrazolo[1,5-a]pyridin-3-yl)methanone] | 500 to 1000
Cc1nc(C(C)(C)O)oc1C(=O)N1CCc2[nH]cnc2[C@@H]1c1nc2cccc(F)c2o1 [Example 267, (R)-(4-(7-fluorobenzo[d]oxazol-2-yl)-6,7-dihydro-1H-imidazo[4,5-c]pyridin-5(4H)-yl)(2-(2-hydroxypropan-2-yl)-4-methyloxazol-5-yl)methanone] | 1000 to 5000
Cc1nc(C(C)(C)O)oc1C(=O)N1CCc2[nH]cnc2[C@H]1c1nc2cccc(F)c2o1 [Example 268, (S)-(4-(7-fluorobenzo[d]oxazol-2-yl)-6,7-dihydro-1H-imidazo[4,5-c]pyridin-5(4H)-yl)(2-(2-hydroxypropan-2-yl)-4-methyloxazol-5-yl)methanone] | 500 to 1000
CC(C)(O)c1nc(Cl)c(C(=O)N2CCc3[nH]cnc3[C@H]2c2nc3ccc(F)cc3o2)o1 [Example 269, (S)-(4-chloro-2-(2-hydroxypropan-2-yl)oxazol-5-yl)(4-(6-fluorobenzo[d]oxazol-2-yl)-6,7-dihydro-1H-imidazo[4,5-c]pyridin-5(4H)-yl)methanone] | 500 to 1000
CC(C)(O)c1nc(Cl)c(C(=O)N2CCc3[nH]cnc3[C@@H]2c2nc3ccc(F)cc3o2)o1 [Example 270, (R)-(4-chloro-2-(2-hydroxypropan-2-yl)oxazol-5-yl)(4-(6-fluorobenzo[d]oxazol-2-yl)-6,7-dihydro-1H-imidazo[4,5-c]pyridin-5(4H)-yl)methanone] | ≥ 5000
CC(C)(O)c1nc(Cl)c(C(=O)N2CCc3[nH]cnc3[C@H]2c2nc3cccc(F)c3o2)o1 [Example 272, (S)-(4-chloro-2-(2-hydroxypropan-2-yl)oxazol-5-yl)(4-(7-fluorobenzo[d]oxazol-2-yl)-6,7-dihydro-1H-imidazo[4,5-c]pyridin-5(4H)-yl)methanone] | ≤ 500
COCc1ccc2c(C(=O)N3CCc4[nH]cnc4[C@H]3c3nc4c(F)cccc4o3)cnn2c1 [Example 275, (S)-(4-(4-fluorobenzo[d]oxazol-2-yl)-6,7-dihydro-1H-imidazo[4,5-c]pyridin-5(4H)-yl)(6-(methoxymethyl)pyrazolo[1,5-a]pyridin-3-yl)methanone] | 500 to 1000
COCc1ccc2c(C(=O)N3CCc4[nH]cnc4[C@@H]3c3nc4c(F)cccc4o3)cnn2c1 [Example 276, (R)-(4-(4-fluorobenzo[d]oxazol-2-yl)-6,7-dihydro-1H-imidazo[4,5-c]pyridin-5(4H)-yl)(6-(methoxymethyl)pyrazolo[1,5-a]pyridin-3-yl)methanone] | ≥ 5000
Cn1nc(Cl)nc1C(=O)N1CCc2[nH]cnc2[C@H]1c1nc2c(F)cccc2o1 [Example 277, (S)-(3-chloro-1-methyl-1H-1,2,4-triazol-5-yl)(4-(4-fluorobenzo[d]oxazol-2-yl)-6,7-dihydro-1H-imidazo[4,5-c]pyridin-5(4H)-yl)methanone] | 500 to 1000
Cn1nc(C(F)(F)F)nc1C(=O)N1CCc2[nH]cnc2[C@H]1c1nc2cccc(F)c2o1 [Example 279, (S)-(4-(7-fluorobenzo[d]oxazol-2-yl)-6,7-dihydro-1H-imidazo[4,5-c]pyridin-5(4H)-yl)(1-methyl-3-(trifluoromethyl)-1H-1,2,4-triazol-5-yl)methanone] | 500 to 1000
Cn1nc(Cl)nc1C(=O)N1CCc2[nH]cnc2[C@H]1c1nc2cccc(F)c2o1 [Example 283, (S)-(3-chloro-1-methyl-1H-1,2,4-triazol-5-yl)(4-(7-fluorobenzo[d]oxazol-2-yl)-6,7-dihydro-1H-imidazo[4,5-c]pyridin-5(4H)-yl)methanone] | ≤ 500
Cn1nc(Cl)nc1C(=O)N1CCc2[nH]cnc2[C@@H]1c1nc2cccc(F)c2o1 [Example 284, (R)-(3-chloro-1-methyl-1H-1,2,4-triazol-5-yl)(4-(7-fluorobenzo[d]oxazol-2-yl)-6,7-dihydro-1H-imidazo[4,5-c]pyridin-5(4H)-yl)methanone] | 1000 to 5000
Cn1nc(C(F)F)nc1C(=O)N1CCc2[nH]cnc2[C@H]1c1nc2cccc(F)c2o1 [Example 285, (S)-(3-(difluoromethyl)-1-methyl-1H-1,2,4-triazol-5-yl)(4-(7-fluorobenzo[d]oxazol-2-yl)-6,7-dihydro-1H-imidazo[4,5-c]pyridin-5(4H)-yl)methanone] | 500 to 1000

Next, values leading:

AC50 [nM] | SMILES
500 to 1000 | Cc1nc(C(C)(C)O)oc1C(=O)N1CCc2[nH]cnc2[C@H]1c1nc2c(F)cccc2o1 [Example 259, (S)-(4-(4-fluorobenzo[d]oxazol-2-yl)-6,7-dihydro-1H-imidazo[4,5-c]pyridin-5(4H)-yl)(2-(2-hydroxypropan-2-yl)-4-methyloxazol-5-yl)methanone]
≥ 5000 | Cc1nc(C(C)(C)O)oc1C(=O)N1CCc2[nH]cnc2[C@@H]1c1nc2c(F)cccc2o1 [Example 260, (R)-(4-(4-fluorobenzo[d]oxazol-2-yl)-6,7-dihydro-1H-imidazo[4,5-c]pyridin-5(4H)-yl)(2-(2-hydroxypropan-2-yl)-4-methyloxazol-5-yl)methanone]
500 to 1000 | O=C(c1ccnn1C(F)(F)F)N1CCc2[nH]cnc2[C@H]1c1nc2cc(F)ccc2o1 [Example 261, (S)-(4-(5-fluorobenzo[d]oxazol-2-yl)-6,7-dihydro-1H-imidazo[4,5-c]pyridin-5(4H)-yl)(1-(trifluoromethyl)-1H-pyrazol-5-yl)methanone]
≤ 500 | CC(C)(O)c1nc(Br)c(C(=O)N2CCc3[nH]cnc3[C@H]2c2nc3cccc(F)c3o2)o1 [Example 263, (S)-(4-bromo-2-(2-hydroxypropan-2-yl)oxazol-5-yl)(4-(7-fluorobenzo[d]oxazol-2-yl)-6,7-dihydro-1H-imidazo[4,5-c]pyridin-5(4H)-yl)methanone]
≥ 5000 | COCc1ccc2c(C(=O)N3CCc4[nH]cnc4[C@@H]3c3nc4cccc(F)c4o3)cnn2c1 [Example 266, (R)-(4-(7-fluorobenzo[d]oxazol-2-yl)-6,7-dihydro-1H-imidazo[4,5-c]pyridin-5(4H)-yl)(6-(methoxymethyl)pyrazolo[1,5-a]pyridin-3-yl)methanone]
1000 to 5000 | CC(C)(O)c1nc(Cl)c(C(=O)N2CCc3[nH]cnc3[C@@H]2c2nc3cccc(F)c3o2)o1 [Example 271, (R)-(4-chloro-2-(2-hydroxypropan-2-yl)oxazol-5-yl)(4-(7-fluorobenzo[d]oxazol-2-yl)-6,7-dihydro-1H-imidazo[4,5-c]pyridin-5(4H)-yl)methanone]
1000 to 5000 | CC(C)(O)c1nc(Cl)c(C(=O)N2CCc3[nH]cnc3[C@@H]2c2nc3c(F)cccc3o2)o1 [Example 273, (R)-(4-chloro-2-(2-hydroxypropan-2-yl)oxazol-5-yl)(4-(4-fluorobenzo[d]oxazol-2-yl)-6,7-dihydro-1H-imidazo[4,5-c]pyridin-5(4H)-yl)methanone]
500 to 1000 | CC(C)(O)c1nc(Cl)c(C(=O)N2CCc3[nH]cnc3[C@H]2c2nc3c(F)cccc3o2)o1 [Example 274, (S)-(4-chloro-2-(2-hydroxypropan-2-yl)oxazol-5-yl)(4-(4-fluorobenzo[d]oxazol-2-yl)-6,7-dihydro-1H-imidazo[4,5-c]pyridin-5(4H)-yl)methanone]
1000 to 5000 | Cn1nc(Cl)nc1C(=O)N1CCc2[nH]cnc2[C@@H]1c1nc2c(F)cccc2o1 [Example 278, (R)-(3-chloro-1-methyl-1H-1,2,4-triazol-5-yl)(4-(4-fluorobenzo[d]oxazol-2-yl)-6,7-dihydro-1H-imidazo[4,5-c]pyridin-5(4H)-yl)methanone]
1000 to 5000 | Cn1nc(C(F)(F)F)nc1C(=O)N1CCc2[nH]cnc2[C@@H]1c1nc2cccc(F)c2o1 [Example 280, (R)-(4-(7-fluorobenzo[d]oxazol-2-yl)-6,7-dihydro-1H-imidazo[4,5-c]pyridin-5(4H)-yl)(1-methyl-3-(trifluoromethyl)-1H-1,2,4-triazol-5-yl)methanone]
500 to 1000 | O=C(c1cnco1)N1CCc2[nH]cnc2[C@H]1c1nc2cccc(F)c2o1 [Example 281, (S)-(4-(7-fluorobenzo[d]oxazol-2-yl)-6,7-dihydro-1H-imidazo[4,5-c]pyridin-5(4H)-yl)(oxazol-5-yl)methanone]
1000 to 5000 | O=C(c1cnco1)N1CCc2[nH]cnc2[C@@H]1c1nc2cccc(F)c2o1 [Example 282, (R)-(4-(7-fluorobenzo[d]oxazol-2-yl)-6,7-dihydro-1H-imidazo[4,5-c]pyridin-5(4H)-yl)(oxazol-5-yl)methanone]
